# Measurements as given in US8431530B2, “Compositions and methods for treating aids or cancer by inhibiting the secretion of microparticles” (priority 2009, dated 2013).
# Legend:
# R7 in Jurkat cells [1] = assay: Electron microscopy of viral particle distribution; format: cell-based, HIV; conditions: R7 co-transfection, day 6 versus day 14
# From the text: (§1) FIG. 4A is a composite of diagrams showing ELISA analysis of p24 concentration in Jurkat cells (panel A), HEK293 cells (panel B), THP-1 Monocytes (panel C) and U937 monocytes (panel D). FIG. 4B is a composite of confocal microscope pictures showing blocking of p24 release in Jurkat cells by SMRwt peptide (panel A) but not by SMRrmt peptide (panel B). FIG. 4C is a composite of confocal and electron microscope pictures showing viral particle distribution in Jurkat cells at day 6 post-transfection with R7 and SMRwt peptide (panel A-1) or with R7 and SMRmt peptide (panel B-1). FIG. 4D is a composite of confocal and electron microscope pictures showing viral particle distribution in Jurkat cells at day 14 post-transfection with R7 and SMRwt peptide (panel A-2) or with R7 and SMRmt peptide (panel B-2), FIG. 4E is a composite of confocal and electron microscope pictures showing viral particle distribution in subcellular structures in Jurkat cells at day 6 post-transfection with R7 and SMRwt peptide (panel A-1) or with R7 and SMRmt peptide (panel B-1) in Jurkat cells and at day 14 post-transfection with R7 and SMRwt peptide (panel A-2) or with R7 and SMRmt peptide (panel B-2) in Jurkat cells.
# FIGS. 4C-4E are electron microscopic pictures showing Jurkat cells transfected with R7/SMRwt or […] at day 6 (FIG. 4C) and day 14 (FIG. 4D) post transfection. […]
# Jurkat cells = assay: Cellular toxicity assay, fluorescein diacetate and propidium iodide; format: cell-based; conditions: peptide alone by Chariot, 48 hours
# From the text: FIG. 12 is a composite of pictures showing the result of cellular toxicity assay for cells transfected with SMRwt or SMRmt peptide. Panels A-1 and B-1: Propidium iodide staining of cells transfected with SMRwt and SMRmt peptide, respectively. Panels A-2 and B-2: Fluorescein diacetate staining of cells transfected with SMRwt and SMRmt peptide, respectively. Panels A-3 and B-3: Phase microscope image of cells transfected with SMRwt and SMRmt peptide, respectively.
# SMRwt or SMRmut (negative control) peptide alone were transfected into Jurkat cells using Chariot. The transfected cells were allowed to grow for 48 hours. The cells were assayed by Fluorescein diacetate (FD; taken up by live cells and converted to FITC making cells fluoresce green) and propidium iodide (PI; diffuse across porous membranes of dying cells fluoresing red inside those cells) for cytotoxicity.
# R7 in Jurkat cells [2] = assay: Confocal microscopy of p24 in R7 transfected cells; format: cell-based, HIV; conditions: day 3, 6, 10, 14, 17 after transfection with R7, accumulation in cytoplasm day 3, 6, 10
# From the text: as §1
# The effect of SMRwt, however, seems to be temporary. It appears that Jurkat and HEK cells can degrade the peptide over time, while U937 monocytes cannot degrade the peptide. […]
# [3] = system: Mortalin/GRP75 and other cellular factors of Jurkat cell lysates; assay: FLAG immuno-precipitation pulldown of cellular factors, MS and Western blot; format: binding; conditions: FLAG IP on Jurkat cell lysates
# Protocol: SMRwt vs. SMRmt peptides were used in conjunction with FLAG immuno-precipitation on Jurkat cell lysates to pulldown cellular factors that interacted with the SMRwt antagonist, but not with the SMRmt negative control. The cellular factor(s) that interact with the antagonist are analyzed by the FLAG IP assay. Briefly, cell lysates are combined with AminoLink Plus resin coupled to FLAG-tagged SMR peptides. SMR-specific cellular proteins (ROY) bind to the SMR peptides on the resin. Non-specific contaminants (G BIV) are washed off of the resin and removed by centrifugation. The SMR-specific cell proteins (ROY) are eluted and collected. Some strongly bound contaminants (V) are also eluted and collected.
# Mortalin interacts with p53, and is shown to be involved in apoptosis and vesicle transport (MAC complex). It is also found in microvesicles released by tumor cells.
# The gel was also Western probed with α-Mortalin antibody. A protein with a molecular weight of ˜75 kDa was detected in the lanes containing the cell lysate, the antagonist eluate, and the antagonist affinity resin (FIG. 13, panel B, Lanes 1, 3, and 5), but not in the negative control or negative control peptide eluate's lanes (FIG. 13, panel B, Lanes 2 and 4).
substance,measurement,setting,value
H-VGFPVAAVGFPVDYKDDDDK-OH [SMRwt],release of virus as measured by EM,R7 in Jurkat cells [1],delays release of virus from infected cells
same,dying cells (propidium iodide),Jurkat cells,< 2%
same,cytotoxicity (in words),Jurkat cells; FD/PI,very little or no cytotoxicity
same,p24 release (confocal microscopy),R7 in Jurkat cells [2],blockage of p24 release
same,"~75 kDa protein in peptide eluate, Western probed with α-Mortalin antibody",[3],detected
same,"cellular proteins in bands of the SMRwt lane but not the SMRmt lane (MALDI TOF MS/MS, LC/MS/MS)",[3]; SDS PAGE,Mortalin/GRP75; Myosin 10; Vimentin; GRP78; HSC70
